“And” between values parts separate entries of the source, which are not always exact repeats. Equal values may be shown once. “Also recorded” adds a separate entry of the source.
Experiments:
cystic acne = test: Split face/back pre-PDT radiant IR study, 11 cystic acne patients (Example 7); assay type: in vivo, human; conditions: IR 970 nm 50 mW/cm2 15 min before 5-ALA; one month after PDT; most patients
Protocol: Study Design/Materials and Methods: Eleven (11) patients were enrolled in a split face or split back (pre-treated side versus control) study with a pre-approved IRB protocol. […] Lesion count was assessed both manually and by digital photography before and 4 weeks after one PDT procedure. Prior to the application of 5-ALA, one side of the face or back was pre-treated with radiant IR [CW LEDs emitting @λ 970 nm, irradiance 50 mW/cm2 for 15 minutes, total fluence 45 J/cm2], while the other half was used as control. PDT was then performed on the entire surface (face or back).

[1] = system: diffuse sebaceous gland hyperplasia; test: Split-face radiant IR skin preparation prior to PDT, diffuse sebaceous gland hyperplasia (Example 4); assay type: in vivo, human
Protocol: A PDT treatment was performed on the face of a patient suffering from diffuse sebaceous gland hyperplasia. They were complaining of redness exacerbated by exercise/effort. […] Facial lesions were distributed mainly on the forehead and cheeks. […] They applied only topical Metrogel. […] Also, comedones and papulo-pustules were present. The patient was skin phototype II (Fitzpatrick classification). Their parent had similar skin condition.
Prior to PDT, radiant IR skin preparation was performed in only half of face (split face study). Then PDT was completed on the complete facial area. First, the face was washed with a mild soap and an acetone scrub was performed. A 970 nm LED source prototype emitting at 50 mW/cm2 in a CW mode was placed at 1.5 cm from the right side of face and left for 25 min. Right after split face irradiation, 5-aminolevilinic acid (Levulan™ Kerastick™) was applied to the treatment area and left for 90 min. The photosensitizer was then light activated by a 630 nm LED source emitting at 50 mW/cm^2 (LumiPhase-RB, Opusmed, Canada), until erythema was reached (20 min). This treatment was concluded by a 405 nm LED source emitting at 30 mW/cm^2 (LumiPhase-RB, Opusmed, Canada), for 5 min. […] Through a mechanism involving the opening of skin pores, IR radiant skin preparation enhanced drug penetration and absorption by the targeted structures (i.e. sebaceous glands).

[2] = system: actinic keratosis lesions; test: Split-face radiant IR skin preparation prior to PDT, actinic keratosis of face and scalp (Example 5); conditions: single PDT treatment
inflammatory acne = test: Randomized, controlled, rater-blinded split face/back trial of IR pre-treatment plus ALA-PDT vs ALA-PDT alone (Example 9); assay type: in vivo, human; conditions: for Change from Baseline in Lesion Counts, Closed comedones, Median / Change from Baseline in Lesion Counts, Nodules, Median / Change from Baseline in Lesion Counts, Open comedones, Median / Change from Baseline in Lesion Counts, Papules, Median / Change from Baseline in Lesion Counts, Pustules, Median / Change from Baseline in Lesion Counts, Total Noninflammatory lesions, Median: week 4; for Change from Baseline in Lesion Counts, Total Inflammatory lesions, Median: week 4 (reduction); for Clinical Global Severity Assessment at Week-4, Median: six-point scale, grade 0 clear to 5 very severe (Table 1)
Protocol: One side was pre-treated for 15 minutes with radiant IR light emitting diode (LED) (970 nm), while the other side was used as control. ALA was then applied after which PDT LED (630 nm) was performed on the entire face or back surface. Blinded lesion counts and clinical global assessment of severity were performed based on digital photographs before and four weeks after the PDT procedure.
Inclusion criteria included patients with skin type I to III according to the Fitzpatrick Classification System [^xxviii]. Exclusion criteria comprised patients taking cortisone (Prednisone), anticoagulant therapy, or any drug known to increase photosensitivity. In addition, during the 12 months preceding the study, patients were required not to have used isotretinoin (Accutane), or applied topical steroids on the site to be treated. Moreover, oral antibiotics use, laser or topical anti-acne medication at the to-be-treated site were not permitted for eight weeks prior to the study. Patients gave written informed consent to participate in this trial in compliance with the US Code of Federal Regulations dealing with the conduct of clinical studies (21 CFR including parts 50 and 56 concerning informed consent and IRB regulations). The study was conducted according to Good Clinical Practice Guidelines and the principles of the Declaration of Helsinki, and was approved by the Institutional Review Board Services (Div. 1373737 Toronto, Canada).
Patients were assigned to a split face or split back group to allow for within-patient assessments of clinical effects. Assignment was based on the patient's problem area. One side was randomly (using a coin flip) assigned to receive IR pre-treatment and ALA-PDT, and the other ALA-PDT alone to serve as control. The IR pre-treatment consisted of a 15 minute exposure to radiant IR LED at 970 nm ([…] using the LumiPhase-R/IR™, OPUSMED Inc. Montreal, Canada) to reach peak H2O absorption inside-out temperature of 45° C. Papillary dermis temperature was monitored with a needle probe throughout the session and up to 40 minutes (Type-T thermocouple, Omega, Montreal, Canada). ALA (20% Levulan Kerastick, DUSA Pharmaceuticals, USA) was then applied on both sides for 60 minutes, after which PDT with LED at 630 nm (50 mW/cm^2, 70 J/cm^2) was performed on the entire face or back surface for a duration of 23 minutes (LumiPhase-R/B™, OPUSMED Inc. Montreal, Canada). No cooling method was used. Digital photographs (Canon Dual Flash EOS 10D, Canon, Tokyo, Japan with EX SIGMA 50 mm 1:2.8 macro lens, Sigma, Aizu, Japan) were taken prior to and four weeks after the procedure. Each photograph was taken maintaining identical ambient lighting, pose and camera angles.
Acne lesion counts were performed before and four weeks after the PDT treatment. All types of inflammatory (papules, pustules, nodules) and noninflammatory (open and closed comedones) acne lesions were counted. Lesion counts were performed based on the digital photographs by two non-treating physicians who were blinded to the treatment regimen (IR-treated or control side) and to the timing of the photographs (baseline or post-treatment).
The global severity of acne was assessed at the end of the study by the […] non-treating physicians, as described above, using a six-point rating scale (Table 1). Clinical success was defined by grades 0 (clear) or 1 (almost clear).
Adverse reactions were monitored throughout the study. Signs of erythema, oedema, scaling/crusting, bronzing, textural changes, hyperpigmentation, and hypopigmentation were documented during the time period of the clinical trial.
Cronbach's alpha was calculated to assess inter-rater reliability in assessments. Reliability was deemed acceptable if Cronbach alpha was […] allowing raters' assessments to be combined for analysis. The primary outcome variable was the percent change from baseline in inflammatory lesion count measured four weeks post-treatment. […]

- time until slight erythema post-PDT disappeared (inflammatory acne; most patients): ≤ 48 h
- duration of acneiform folliculitis (inflammatory acne; two patients): 3 to 4 days
SMILES: NCC(=O)CCC(=O)O [5-ALA, 5-aminolevulinic acid]
- number of cystic lesions, pre-treated versus control side (cystic acne): statistically significant decrease in the number of cystic lesions
- time clearing was maintained post-treatment ([1]; especially on the radiant IR pre-treated side): up to 6 months
- improvement of SH lesions ([1]; other side, no IR preparation, PDT alone, single treatment): 30%
- lesion clearance ([2]; left side, no IR pre-treatment): 40%
- lesion clearance ([2]; right side, IR pre-treated (970 nm, 40 mW/cm2, 30 min), 90 min incubation): 60%
- Change from Baseline in Lesion Counts, Closed comedones, Median (inflammatory acne; Control side (ALA-PDT alone)): 0.00%
- Change from Baseline in Lesion Counts, Nodules, Median (inflammatory acne; Control side (ALA-PDT alone)): 20.00%
- Change from Baseline in Lesion Counts, Open comedones, Median (inflammatory acne; Control side (ALA-PDT alone)): 0.00%
- Change from Baseline in Lesion Counts, Papules, Median (inflammatory acne; Control side (ALA-PDT alone)): 38.10%
- Change from Baseline in Lesion Counts, Pustules, Median (inflammatory acne; Control side (ALA-PDT alone)): 0.00%
- Change from Baseline in Lesion Counts, Total Noninflammatory lesions, Median (inflammatory acne; Control side (ALA-PDT alone)): 0.00%
- Change from Baseline in Lesion Counts, Total Inflammatory lesions, Median (inflammatory acne; Control side (ALA-PDT alone), listed as ALA): 38% and 37.86%
- Clinical Global Severity Assessment at Week-4, Median (inflammatory acne; Control side): 2
- treatment-related adverse effects / tolerability (inflammatory acne; IR pre-treatment + ALA-PDT and ALA-PDT alone, listed as ALA): No unusual treatment-related adverse effects were observed; also recorded: overall well tolerated
- Clinical Global Severity Assessment at Week-4, Median (inflammatory acne; IR-Treated side): 1
- Change from Baseline in Lesion Counts, Closed comedones, Median (inflammatory acne; IR-Treated side): 0.00%
- Change from Baseline in Lesion Counts, Nodules, Median (inflammatory acne; IR-Treated side): 100.00%
- Change from Baseline in Lesion Counts, Open comedones, Median (inflammatory acne; IR-Treated side): 0.00%
- Change from Baseline in Lesion Counts, Papules, Median (inflammatory acne; IR-Treated side): 75.00%
- Change from Baseline in Lesion Counts, Pustules, Median (inflammatory acne; IR-Treated side): 37.65%
- Change from Baseline in Lesion Counts, Total Noninflammatory lesions, Median (inflammatory acne; IR-Treated side): 0.00%
- Change from Baseline in Lesion Counts, Total Inflammatory lesions, Median (inflammatory acne; IR-Treated side, listed as ALA): 73% and 73.21%
- clinical success rate (almost clear or clear categories) (inflammatory acne; IR-treated side, week-4): 78%
- additional benefit of IR-treated side in inflammatory lesion count reduction (inflammatory acne; IR-treated vs control side, week-4): 35%
- clinical success rate (almost clear or clear categories) (inflammatory acne; control side, week-4): 44%
